From patent US20240189258A1, “CANCER CELL GROWTH INHIBITING COMPOSITION AND PROCESSED FOOD” (HAGIHARA FARM PRODUCTION INSTITUTE CO., LTD., priority 2021, published 2024) come the findings set out here.

pIC50: −log10 of the molar value.

As a reminder, the pIC50 is the IC50 on a negative log10 scale, so that one unit is a factor of ten. A lower pIC50 goes with a high IC50. As usually defined, the melting point is the temperature, or range, at which the solid turns liquid.

For one data set, the system named is Jurkat cells. The data set is described as follows: Growth inhibiting activity for human leukemia T cell line Jurkat cells (Cell Count Reagent SF, cell viability). The data set is classed as cell-based. Particulars: 72 hours culture, cell viability by absorbance A450-A630. The method, then: <2. Evaluation of growth inhibiting activity of compounds for human leukemia T cell line Jurkat cells>
The cancer cell growth-inhibiting activity of each sample described above was examined using Jurkat cells, which are from a human leukemia T cell line.
In each well of a 96-well plate, 50 μL of a Jurkat cell suspension prepared at 1×10^5 cells/mL was seeded. A DMSO solution of the evaluation sample was diluted 500 times with the culture medium. Immediately after that, 50 μL of the diluted sample solution was added to the cells to start a cell treatment. After the samples were stirred for 30 seconds using a microplate reader, the cells were cultured in an incubator. After 72 hours, 10 μL of Cell Count Reagent SF was added to each well. After a color reaction was performed in the incubator for 2 to 3 hours, the absorbance at 450 nm and 630 nm was measured using a microplate reader. Cell viability was determined using the following formula (F1).
Cell viability (%)=[(As−Ab)/(Ac−Ab)]×100 (F1)
Note that As, Ab, and Ac are as follows. • As: absorbance of evaluation well • Ab: absorbance of negative control well • Ac: absorbance of control well
All the “absorbance” values in the above-described formula were calculated by subtracting the absorbance at 630 nm (referred to as A630) from the absorbance at 450 nm (referred to as A450) , that is, “A450-A630”. Further, IC50 was calculated by linear approximation on a logarithmic graph using two concentrations that most tightly enclose the 50% cell viability point.

In turn, `C/C(=C\CN(C)C)CCC[C@H](C)CCC[C@H](C)CCCC(C)C` (racemic) [PT21, (7RS,11RS,E)-1-N,N-dimethylamino-3,7,11,15-tetramethyl-2-hexadecene] gave a negative-log IC50 (pIC50) in the data set on Jurkat cells (Homo sapiens) of 5.55. `C/C(=C\CNC(C)C)CCC[C@H](C)CCC[C@H](C)CCCC(C)C` (racemic) [PT22, (7RS,11RS,E)-1-isopropylamino-3,7,11,15-tetramethyl-2-hexadecene]: the pIC50 in the data set on Jurkat cells (Homo sapiens) was 5.59.

Molecule `C/C(=C\CNC(C)(C)C)CCC[C@H](C)CCC[C@H](C)CCCC(C)C` (racemic) [PT23, (7RS,11RS,E)-1-t-butylamino-3,7,11,15-tetramethyl-2-hexadecene] had a pIC50 in the data set on Jurkat cells (Homo sapiens) of 5.51.

In turn, `C/C(=C\C[N+](C)(C)C)CCC[C@H](C)CCC[C@H](C)CCCC(C)C.[Br-]` (racemic) [PT26, (7RS,11RS,E)-N,N,N-trimethyl-3,7,11,15-tetramethyl-2-hexadecenaminium bromide] showed a melting point of 199 to 201 °C. This molecule showed a negative-log IC50 (pIC50) with Jurkat cells (Homo sapiens) of 5.85. `CC[N+](CC)(CC)C/C=C(\C)CCC[C@H](C)CCC[C@H](C)CCCC(C)C.[Br-]` (racemic) [PT27, (7RS,11RS,E)-N,N,N-triethyl-3,7,11,15-tetramethyl-2-hexadecenaminium bromide] yielded a melting point of 132 to 135 °C. The pIC50 with Jurkat cells (Homo sapiens) is 6.32. Take `C/C(=C\Cn1c(N)ccnc1=O)CCC[C@H](C)CCC[C@H](C)CCCC(C)C` (racemic) [PT28, 6-amino-1-((7R,11R,E)-3,7,11,15-tetramethyl-2-hexadecenyl)pyrimidin-2(1H)-one]: the melting point fell in the range of 101 to 102 °C. Besides, in the data set on Jurkat cells (Homo sapiens), the pIC50 is 5.49. With `C/C(=C\CN)CCC[C@H](C)CCC[C@H](C)CCCC(C)C` (racemic) [rac-PT10, (7R,11R,E)-1-amino-3,7,11,15-tetramethyl-2-hexadecene, reference compound], the pIC50 with Jurkat cells (Homo sapiens) was 5.42. `C/C(=C\CO)CCC[C@H](C)CCC[C@H](C)CCCC(C)C` (racemic) [rac-PTO, phytol, reference compound] had a pIC50 with Jurkat cells of 4.53.
